Reference: patent US6087375A, “Methods of treating or preventing thromboses” (priority 1999, dated 2000)

How the values were obtained:
[1] = molecular target: T1, thrombin from human plasma (Homo sapiens, UniProt P00734); test: Km-based chromogenic thrombin inhibition assay (S-2238); format: biochemical; parameters: from tissue; host or cells: human plasma; settings: 8 μM S-2238, 10 mU thrombin, pH 7.2, 35° C., 405 nm
Text: Specifically, a Km-based chromogenic assay was first employed. […] Measurements at 405 nm are designed to detect the thrombin-induced liberation of p-nitroaniline from the S-2238 substrate. As such, an observed increase in absorbance at 405 nm directly correlates with an increase in hydrolysis of the substrate by thrombin.

[2] = molecular target: T1, thrombin from human plasma; test: Vmax-based thrombin inhibition assay (200 μM S-2238); format: biochemical; parameters: from tissue; host or cells: human plasma; settings: 200 μM S-2238, 40 mU thrombin, pH 7.2, 25° C.
[3] = molecular target: T1, thrombin from human plasma; test: Km-based 96-well formatted fluorogenic thrombin inhibition assay
[4] = system: anti-KLH-argatroban antibody; test: Sandwich ELISA using polyclonal anti-KLH-argatroban antibodies; format: binding, rabbit; settings: rabbit erythrocytes treated with argatroban-C6 free acid
Protocol: The reaction was quenched by adding hydroxylamine, pH 7.8 to a final concentration of 50 mM and incubating at room temperature for 10 minutes.
Rabbit anti-HSA monoclonal antibody (Boehringer/Mannheim, catalog no. 605001) diluted 1:5000 in PBS, pH 7.4 or mouse anti-hGPA monoclonal antibody (BioAtlan-tic/CRTS, mAb 5F4, diluted to 10 μg/ml in 0.1 M sodium acetate, pH 4.5 or mAb 3C10 diluted 1:500 or mAb 3E4 diluted 1:1000 in PBS, pH 7.4 - each antibody recognizes a different epitope of hGPA), were used to capture respective proteins by aliquotting 100 μl/well into a NUNC Maxisorp F96 plate (catalog no. 439454). The plates were incubated overnight at 4° C., were then blocked by the addition of 200 μl/well of 1% BSA/PBS and incubated at room temperature for 1 hour. The plates were then washed 5 times by submersion in PBS, pH 7.4.
Samples were incubated on the plates for 2 hours at room temperature and then were washed as above.
The plates were then incubated at room temperature for 30 minutes and washed as above.
Biotinylated goat anti-rabbit IgG (Vector, catalog no. BA1000) was diluted 1:1000 in 1% BSA/PBS, pH 7.4 and 100 μl/well added to all wells. The plates were incubated at room temperature for 30 minutes and washed as above.
Next, 100 μl/well of ABC-HRP (Vector, catalog no. PK4000) was added, each component diluted 1:500 in PBS, pH 7.4, with 0.1% TWEEN 20 and incubated 30 minutes at room temperature prior to use. The plates were then washed 10 times by submersion in PBS, pH 7.4.

[5] = molecular target: T1, thrombin from human plasma; test: Km-based fluorogenic assay for inhibition of thrombin (Example 7); format: biochemical; parameters: from tissue; host or cells: human plasma; settings: FIGS. 9 and 10
Protocol: Thrombin from human plasma was obtained from Enzyme System Products, Dublin, Calif., in glycerol:water 1:1, 11.4 mg/ml, 3800 U/mg, MW 36,700, and stored undiluted at -20° C. It was freshly diluted the day of use.
To dilute for the assay, 0.67 μl (25 Units) of thrombin was pipetted into 5 ml of 0.1 mg/ml BSA (from Pierce, Catalog No. 23209, BSA fraction V, a 2 mg/ml stock in saline with sodium azide), in cold PBS (GIBCO, Catalog No. 14190-136, without calcium chloride and magnesium chloride, pH 7.2) and briefly vortexed, yielding a stock of 5 mU thrombin/μl.
The substrate was N-tBOC-β-Benzyl-Asp-Pro-Arg-7-Amido4-Methylcoumarin HCl and was obtained from Sigma, Catalog No. B4028, Lot 122H0070, F.W. 770.3. Five mg was dissolved in […] DMSO for a 4 mM stock. The stock was stored in 200 μl aliquots at -20° C. in the dark.
An alternative substrate was N-tBOC-Val-Pro-Arg-7-Amido4-Methylcoumarin HCl and was obtained from Sigma, Catalog No. B-9385, Lot 53H0805, F.W. of free base 627.7. Five mg was dissolved in 1.863 ml DMSO for a 4 mM stock. The stock was stored in 200 μl aliquots at -20° C. in the dark.
The fluorescent standard was 7-Amido4-Methylcoumarin and was obtained from Aldrich, Catalog No. 25,737-0, MW 175.19. […]
Initial readings were taken to ensure exclusion of rogue wells with abnormally high backgrounds (λ excitation at 360 nm, bandwidth […], λ emission, 460 nm, bandwidth 40 nm). Then, 25 μl of a 10×stock of the putative inhibitor were added per well, mixed for 5 seconds and read kinetically for 10 minutes at ambient temperature to assess background interference and/or any increase in hydrolysis of substrate due to inhibitor.
The thrombin assay was then initiated by adding 25 μl of thrombin/well with a multichannel pipettor and mixed for 5 seconds. The appearence of the fluorescent product (free 7-amido-4-methylcoumarin released from the peptide by thrombin) was followed simultaneously in 48 wells (one reading per minute for 30 minutes, λ excitation at 360 nm, bandwidth 40 nm, λ emission, 460 nm, bandwidth 40 nm). […]

IC50 [1] [nM]	IC50 [2] [µM]	IC50 [3] [nM]	thrombin inhibition [5]	Compound	plate ELISA signal [4]
150	5 to 8	~80	–	CC1CNc2c(cccc2S(=O)(=O)NC(CCCNC(=N)N)C(=O)N2CCC(C)CC2C(=O)NCCCCCCCCCCCC(=O)O)C1 (stereo not drawn) [compound YL-015-10]	–
–	–	~50	not inhibitory	CC1CNc2c(cccc2S(=O)(=O)NC(CCCN=C(N)N)C(=O)N2CCC(C)CC2C(=O)NCCCCCC(=O)O)C1 (stereo not drawn) [compound YL-015-15]	did not give a signal above background
